What is called Ki is a measure of affinity in units of concentration, obtained from inhibition or displacement. As usually defined, the IC50 is the midpoint of a concentration-inhibition curve.

Structures can show the parent of a compound that is named as a salt. Where two headings read alike, the source gives them in different places.

We go through 23 compounds from patent US4584301A, “Diphenylmethylene piperidines, compositions and methods of use” (Warner-Lambert Company, priority 1985, dated 1986).

Assay [1] concerns muscarinic cholinergic receptors. It is filed as binding. As to conditions: rat brain homogenate, [3H]QNB, 25° C., pH 7.4; for MRBA percent inhibition of total specific binding: concentration not given; for IC50: read-out: MRBA IC50.
The next assay concerns the target T1, Histamine H1 receptor (Rattus norvegicus, UniProt P31390).
T1 construct: Histamine H1 Receptors in Rat Brain Membranes; from tissue; host or cells: rat brain membranes
Briefly: Affinity for histamine H1 receptors in rat brain membranes. In kind it is binding. The text has this: (§1) for Dopamine D2, Muscarinic, and
(§2) Histamine H1 Receptors in Rat Brain Membranes
*Tran V. T., Lebovitz, R., Toll, L., and Snyder, S. H.: [^3 H]Doxepin
interactions with histamine H1 -receptors in guinea pig and rat brai

A further assay deals with brain dopamine receptors. Description: Haloperidol receptor binding assay (HRBA), inhibition of 3H-haloperidol binding. As to conditions: rat corpus striatum, 0.6 nM 3H-haloperidol; for HRBA percent inhibition: 1 nM and 10 nM of test drug in primary screen, concentration per value not given; for IC50: pH 7.7.
The target in assay [2] is Muscarinic Cholinergic receptor. Briefly: Affinity for muscarinic cholinergic receptors in rat brain membranes. It is filed as binding. The procedure:
This test uses the displacement of [^3 H] quinuclidinyl benzilate ([^3 H]QNB) from specific muscarinic cholinergic receptors in the rat brain to measure in vitro anticholinergic activity of compounds. […]. A Long-Evans male rat weighing 180-200 grams is routinely used. The brain tissue homogenate along with appropriate concentrations of test compounds and [^3 H]QNB is incubated for one hour at 25° C. in a buffer medium of 50 mM Na-K PO4 pH 7.4. The material is filtered and washed on a millipore filter using Whatman GF/B filters. The filters are counted on a scintillation spectrophotometer. A maximal displacement by 0.1 mM oxotremorine is used to determine how much of the total binding is specific for muscarinic receptors.
Results: The results are reported as percent inhibition of total specific binding. Reference: Yamamura, Henry L. and Snyder, Solomon H. (1974). Muscarinic Cholinergic Binding in Rat Brain Proc. Nat. Acad. Sci. USA Vol 71 No. 5 pp. 1725-1729 May 1974.
as §1, §2

For another assay, the target named is Dopamine D2 receptor (Rattus norvegicus, UniProt P61169). Briefly: Affinity for dopamine D2 receptors in rat brain membranes. It is filed as binding.
Dopamine D2 receptor, sequence (P61169 whole entry): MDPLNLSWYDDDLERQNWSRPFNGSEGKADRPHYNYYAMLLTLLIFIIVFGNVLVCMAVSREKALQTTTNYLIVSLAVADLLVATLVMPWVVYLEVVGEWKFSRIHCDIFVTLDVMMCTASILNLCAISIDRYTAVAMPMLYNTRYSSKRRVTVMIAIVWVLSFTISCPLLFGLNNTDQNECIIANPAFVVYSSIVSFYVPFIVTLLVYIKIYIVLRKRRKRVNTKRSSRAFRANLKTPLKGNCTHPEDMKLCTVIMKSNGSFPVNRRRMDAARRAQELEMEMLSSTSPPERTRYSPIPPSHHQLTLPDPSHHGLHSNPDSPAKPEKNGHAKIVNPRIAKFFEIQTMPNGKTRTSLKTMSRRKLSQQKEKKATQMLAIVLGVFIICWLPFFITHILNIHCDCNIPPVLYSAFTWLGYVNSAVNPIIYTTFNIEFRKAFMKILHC
The mark [3] stands for this setting: rat brain membranes, read-out: Receptor Ki, Histamine H1.

T1 sequence (P31390 whole entry): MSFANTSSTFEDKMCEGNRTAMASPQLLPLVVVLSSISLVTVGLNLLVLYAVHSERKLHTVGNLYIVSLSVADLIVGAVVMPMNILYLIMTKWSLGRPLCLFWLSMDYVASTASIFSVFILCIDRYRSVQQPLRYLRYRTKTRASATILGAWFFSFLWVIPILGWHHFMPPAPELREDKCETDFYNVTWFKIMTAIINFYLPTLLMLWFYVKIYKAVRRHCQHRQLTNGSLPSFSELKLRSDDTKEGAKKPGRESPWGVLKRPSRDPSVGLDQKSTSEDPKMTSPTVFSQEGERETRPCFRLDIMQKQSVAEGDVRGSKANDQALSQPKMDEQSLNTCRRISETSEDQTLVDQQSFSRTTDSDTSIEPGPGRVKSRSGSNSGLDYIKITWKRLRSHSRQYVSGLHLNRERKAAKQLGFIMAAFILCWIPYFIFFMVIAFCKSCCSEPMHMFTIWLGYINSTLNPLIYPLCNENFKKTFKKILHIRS

As for `Cl.Cl.Fc1ccc(C(=C2CCN(CCN3CCCCC3)CC2)c2ccc(F)cc2)cc1` [Compound 15, Piperidine, 4-[bis-(4-fluorophenyl)-methylene]-1-[2-(1-piperidinyl)ethyl]-, dihydrochloride], the “MRBA percent inhibition of total specific binding” value (from here on “MRBA percent inhibition”) in assay [1] was determined as 67%. In addition, the Ki was found to be 86 nM on Histamine H1 receptor, 17 nM in assay [2] and 56 nM at Dopamine D2 receptor. In addition, in the assay with brain dopamine receptors, the HRBA percent inhibition is listed as 62%.
For `O=C(CCN1CCC(=C(c2ccccc2)c2ccccc2)CC1)N1CCC(O)(O)CC1` [Compound 11, 4,4-Piperidinediol, 1-[3-[4-(diphenylmethylene)-1-piperidinyl]-1-oxopropyl]], the IC50 was found to be 38.3 nM in assay [1] and 367 nM at brain dopamine receptors.
For the compound `Fc1ccc(C(=C2CCN(CCCN3CCCCC3)CC2)c2ccc(F)cc2)cc1` [Compound 14, Piperidine, 1-[3-(1-piperidinyl)propyl]-4-[bis-(4-fluorophenyl)-methylene]-, dihydrochloride, hydrate (2:1)], the “MRBA percent inhibition” value in assay [1] came out at 57%. Further, the values for the Ki (at Histamine H1 receptor (setting [3]); in assay [2]; on Dopamine D2 receptor) were 16 nM, 23 nM and 67 nM, respectively. In the assay with brain dopamine receptors, this compound had an HRBA percent inhibition of 73%.
For `CN1CCCC1CCN1CCC(=C(c2ccc(F)cc2)c2ccc(F)cc2)CC1` (stereo not drawn) [Compound 16, Piperidine, 4-[bis-(4-fluorophenyl)-methylene]-1-[2-(1-methyl-2-pyrrolidinyl)ethyl]-, (E)-2-butanedioate (1:2)], the “MRBA percent inhibition” value in assay [1] was determined as 36%. The compound further had an HRBA percent inhibition in the assay on brain dopamine receptors of 48%.
For the compound `O=C(CCN1CCC(=C(c2ccccc2)c2ccccc2)CC1)N1CCCc2ccccc21` [Compound 7], in assay [1], the “MRBA percent inhibition” value is listed as 52%.
As for `OCCC1CCN(CCCN2CCC(=C(c3ccccc3)c3ccccc3)CC2)CC1` [Compound 13, 4-Piperidineethanol, 1-[3-[4-(diphenylmethylene)-1-piperidinyl]propyl]-,dihydrochloride, monohydrate], in assay [1], the “MRBA percent inhibition” value was 83%. Moreover, the Ki came out at 19.5 nM on Histamine H1 receptor (setting [3]), 5 nM in assay [2] and 158 nM on Dopamine D2 receptor. In the assay on brain dopamine receptors, this compound gave an HRBA percent inhibition of 55%.
As to `c1ccc(C(=C2CCN(CCCN3CCCCC3)CC2)c2ccccc2)cc1` [Compound 4, Piperidine, 4-(diphenylmethylene)-1-[3-(1-piperidinyl)propyl]-,dihydrochloride, hemihydrate], the IC50 in assay [1] stood at 15 nM; at brain dopamine receptors, 50.4 nM.
Take `Cl.Cl.O.c1ccc(C(=C2CCN(CCCN3CCCc4ccccc43)CC2)c2ccccc2)cc1` [Compound 10, Quinoline, 1-[3-[4-(diphenylmethylene]-1-piperidinyl]propyl]-1,2,3,4-tetrahydro-, dihydrochloride, monohydrate]: the “MRBA percent inhibition” value in assay [1] was found to be 83%. The HRBA percent inhibition with brain dopamine receptors is 69%.
For the compound `CN1CCCC1CCN1CCC(=C(c2ccccc2)c2ccccc2)CC1` (stereo not drawn) [Compound 5, Piperidine, 4-(diphenylmethylene)-1-[2-(1-methyl-2-pyrrolidinyl)ethyl]-, dihydrochloride, hemihydrate], the figures for the IC50 (in assay [1]; at brain dopamine receptors (unit inferred)) were 19.9 nM and 72.7 nM, respectively.
`c1ccc(C(=C2CCN(CCCN3CCCc4ccccc43)CC2)c2ccccc2)cc1`: the figures for the Ki (on Histamine H1 receptor (setting [3]); in assay [2]; at Dopamine D2 receptor) were 31 nM, 11 nM and 42 nM, respectively.
As for `Cl.Cl.c1ccc(C(=C2CCN(CCCCN3CCCCC3)CC2)c2ccccc2)cc1` [Compound 6, Piperidine, 4-(diphenylmethylene)-1-[4-[1-piperidinyl]butyl]-, dihydrochloride], in assay [1], the “MRBA percent inhibition” value is listed as 83%.
As to `Fc1cccc(C(=C2CCN(CCCN3CCCCC3)CC2)c2ccccc2)c1` [Compound 19, Piperidine, 4-[(3-fluorophenyl)phenylmethylene]-1-[3-(1-piperidinyl)propyl]-, dihydrochloride], the “MRBA percent inhibition” value in assay [1] amounted to 45%. In the assay on brain dopamine receptors, this compound showed an HRBA percent inhibition of 36%.
Take `c1ccc(C(=C2CCN(CCN3CCCC3)CC2)c2ccccc2)cc1` [Compound 2, Piperidine, 4-(diphenylmethylene)-1-[2-(1-pyrrolidinyl)ethyl]-,dihydrochloride]: the concentration for half-maximal inhibition (IC50) in assay [1] is 8.4 nM; on brain dopamine receptors (unit inferred), 309 nM.
As for `O=C(CCCN1CCCCC1)N1CCC(=C(c2ccccc2)c2ccccc2)CC1` [Compound 20, Piperidine, 4-(diphenylmethylene)-1-[1-oxo-4-(1-piperidinyl)butyl]-], the “MRBA percent inhibition” value in assay [1] stood at 54%.
For the compound `CNC(=NC#N)NCCCN1CCC(=C(c2ccccc2)c2ccccc2)CC1` [Compound 22, Guanidine, N'-cyano-N-[3-[4-(diphenylmethylene)-1-piperidinyl]propyl]-N'-methyl], the “MRBA percent inhibition” value in assay [1] was determined as 42%. In the assay with brain dopamine receptors, the HRBA percent inhibition is 73%.
The like results for `Cl.Cl.Clc1cccc(C(=C2CCN(CCCN3CCCCC3)CC2)c2ccccc2)c1` [Compound 18, Piperidine, 4-[(3-chlorophenyl)phenylmethylene]-1-[3-(1-piperidinyl)propyl]-, dihydrochloride] were, in that order, 37% and 52%.
For the compound `Fc1cccc(C(=C2CCN(CCCN3CCCCC3)CC2)c2cccc(F)c2)c1` [Compound 17, dihydrochloride], the “MRBA percent inhibition” value in assay [1] turned out to be 32%.
Same read-out and setting: the figure for `O=C(CCN1CCC(=C(c2ccccc2)c2ccccc2)CC1)N1CC=C(Oc2ccc(F)cc2)CC1` [Compound 8, pyridine, 1-[3-[4-(diphenylmethylene-1-piperidinyl]-1-oxopropyl]-4-(fluorophenoxy)-1,2,3,6-tetrahydro-, 2-hydroxy-1,2,3-propane tricarboxylate(1:1), dihydrate] is 64%.
For `CC1(C)CC(=O)C=C(NCCN2CCC(=C(c3ccccc3)c3ccccc3)CC2)C1` [Compound 9, 2-Cyclohexen-1-one, 3-[[2-[4-(diphenylmethylene)-1-piperidinyl]ethyl]amino]-5,5-dimethyl], in assay [1], the “MRBA percent inhibition” value is 73%. Further, the Ki was determined as 56 nM on Histamine H1 receptor (setting [3]), 11 nM in assay [2] and 75 nM at Dopamine D2 receptor. Further, the HRBA percent inhibition in the assay on brain dopamine receptors turned out to be 63%.
The like results for `OC1CCN(CCCN2CCC(=C(c3ccccc3)c3ccccc3)CC2)CC1` [Compound 12, 4-Piperidinol, 1-[3-[4-(diphenylmethylene)-1-piperidinyl]propyl]-,dihydro-chloride, hemihydrate] were, in that order, 63%, 6.1 nM, 15 nM, 25 nM and 89%.
`CSC(=NC#N)NCCCN1CCC(=C(c2ccccc2)c2ccccc2)CC1` [Compound 21, Carbamimidothioic acid, N'-cyano-N-[3-[4-(diphenylmethylene)-1-piperidinyl]-propyl]-, methyl ester]: the IC50 in assay [1] was 64.7 nM; on brain dopamine receptors, 39.2 nM. Besides, the Ki on Histamine H1 receptor (setting [3]) came out at 0.38 nM; in assay [2] it was 8.6 nM; at Dopamine D2 receptor it was 32 nM.
Regarding `N#CN=C(NCCCN1CCC(=C(c2ccccc2)c2ccccc2)CC1)N1CCCCC1` [Compound 23, 1-Piperidinecarboximidamine, N'-cyano-N-[3-[4-diphenylmethylene]-1-piperidinyl]propyl], the “MRBA percent inhibition” value in assay [1] is given as 86%. Further, the Ki was 1.7 nM on Histamine H1 receptor (setting [3]), 2 nM in assay [2] and 28 nM on Dopamine D2 receptor. This compound also returned an HRBA percent inhibition in the assay on brain dopamine receptors of 55%.
`c1ccc(C(=C2CCN(CCN3CCCCC3)CC2)c2ccccc2)cc1` [Compound 3, Piperidine, 4-(diphenylmethylene)-1-[2-(1-piperidinyl)ethyl]-, dihydrochloride, hydrate (4:1)]: the half-maximal inhibitory concentration (IC50) in assay [1] was 18.1 nM; at brain dopamine receptors, 135 nM. The results for the inhibition constant Ki (on Histamine H1 receptor (setting [3]); in assay [2]; at Dopamine D2 receptor) were 12 nM, 3 nM and 105 nM, respectively.
